Data set [1] is described as follows: Inhibition of cell proliferation in mouse NIH/3T3 cells at 100 uM after 24 to 72 hrs by coulter counting analysis. The note with it: nih3t3, 100 µM. It is filed as cell-based.
In data set [2] the target is T1, GTPase HRas (Homo sapiens, UniProt P01112). As to the kind of experiment: Binding affinity to [15N]-H-Ras (1 to 166) (unknown origin) by NMR spectrometry.
Target sequence in this assay (P01112 whole entry): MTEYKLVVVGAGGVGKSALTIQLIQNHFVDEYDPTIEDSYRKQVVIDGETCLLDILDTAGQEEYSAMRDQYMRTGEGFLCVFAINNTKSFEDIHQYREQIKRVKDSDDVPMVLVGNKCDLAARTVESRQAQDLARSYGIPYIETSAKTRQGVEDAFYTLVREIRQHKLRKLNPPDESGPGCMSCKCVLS
Data set [3] concerns the target T1, GTPase HRas. As to the kind of experiment: Inhibition of recombinant N-terminal His-tagged H-Ras (unknown origin) expressed in Escherichia coli M15 assessed as inhibition of GEF-mediated nucleotide exchange after 300 secs by luminescence spectrophotometry.
Target sequence in this assay (P01112 whole entry): as above
The subject of data set [4] is NIH3T3. As to the kind of experiment: Inhibition of cell proliferation in mouse NIH/3T3 cells expressing K-RAS at 100 uM after 24 to 72 hrs by coulter counting analysis. It is filed as functional, cell-based.
A short description of data set [5]: Inhibition of cell proliferation in mouse NIH/3T3 cells after 24 to 72 hrs by coulter counting analysis. It is filed as cell-based. The note with it: nih3t3.
Data set [6] has as its system NIH3T3. As to the kind of experiment: Inhibition of cell proliferation in mouse NIH/3T3 cells expressing K-RAS after 24 to 72 hrs by coulter counting analysis. It is filed as functional, cell-based.
For the next data set, the species on record is Mus musculus. Briefly: Inhibition of Ras in mouse NIHRAS cells assessed as reduction of phosphorylated MAPK level at 250 uM after 24 hrs by sandwich ELISA. It is filed as cell-based. Background: An ELISA detects its analyte on a solid surface through an enzyme-linked reagent.
The target in data set [7] is T1, GTPase HRas. Briefly: Inhibition of recombinant N-terminal His-tagged H-Ras (unknown origin) expressed in Escherichia coli M15 assessed as inhibition of human Sos1-mediated nucleotide exchange after 300 secs by luminescence spectrophotometry.

What is called Kd is the equilibrium constant for the complex coming apart. Lower therefore signals tighter binding. Broadly, the IC50 is the point on the concentration scale where inhibition reaches its midpoint.

Calls of active or inactive are those of the source. The rule behind the calls is not given here.

Consider `OC[C@H]1O[C@@H](O[C@H]2[C@H](O)[C@@H](O)C(N(Cc3ccc(O)c(O)c3)OCc3ccccc3)O[C@@H]2CO)[C@H](O)[C@@H](O)[C@H]1O` (stereo partly drawn), for which the Activity entry in data set [1] is reported as “Toxic”. Also, on GTPase HRas [2], binding was put at a Kd of 7.8 µM. Moreover, at GTPase HRas [3], the IC50 was 100 µM. Also, in the data set with NIH3T3 [4], the inhibition entry was “Active”. For the same molecule, the “inhibition (INH)” value in data set [5] is recorded as “Dose-dependent effect”. Besides, the inhibition entry in the data set with NIH3T3 [6] is “Dose-dependent effect”.

For `CC(=O)N[C@H]1C(N(Cc2ccc(O)c(O)c2)OCc2ccccc2)O[C@H](CO)[C@@H](O)[C@@H]1O` (stereo partly drawn), the inhibition entry in the data set filed under Mus musculus and with NIH3T3 [4] was “Active” throughout. Moreover, the Activity result in data set [1] was “Toxic”. The molecule further showed a Kd on GTPase HRas [2] of 5.5 µM. In addition, the IC50 on GTPase HRas [3] turned out to be 80 µM; on GTPase HRas [7], 122 µM. In data set [5], the “inhibition (INH)” value is “Dose-dependent effect”. Besides, the inhibition result at GTPase HRas [7] and in the data set on NIH3T3 [6] was “Dose-dependent effect” in each case.

As to `OC[C@H]1OC(N(Cc2ccc(O)c(O)c2)OCc2ccccc2)[C@H](O)[C@@H](O)[C@@H]1O` (stereo partly drawn), the Activity result in data set [1] is “Toxic”. Moreover, the Kd at GTPase HRas [2] turned out to be 9.5 µM. The half-maximal inhibitory concentration (IC50) on GTPase HRas [3] is 80 µM. Moreover, in the data set on NIH3T3 [4], the inhibition result is “Active”. In addition, the “inhibition (INH)” value in data set [5] was “Dose-dependent effect”. Further, the inhibition result in the data set with NIH3T3 [6] is “Dose-dependent effect”.

On GTPase HRas [2], `Oc1ccc(CNOCc2ccccc2)cc1O` displayed a Kd of 21.4 µM. The IC50 on GTPase HRas [3] was 320 µM.

Source of the values: ChEMBL document CHEMBL3217553, “Binding properties and biological characterization of new sugar-derived Ras ligands” (Medchemcomm, 2011).
